Common to all, as to type: biochemical
Data set [1] addresses T1, hGWL-KinDom (Homo sapiens, UniProt Q96GX5).
T1 construct: that encoded amino acids (aa) 1-194 + ‘RTFC’ + 740-879 of hGWL; GST (rhinovirus 3C-protease cleavable) (N, cleaved yes); made in house; host or cells: E. coli Rosetta2(DE3)
The data set is described as follows: Kinase-Glo Max luminescence kinase assay with hGWL-KinDom. The conditions noted are these: for Km / kcat: substrate of hGWL-KinDom, Kinase-Glo Max. Here is the method:
Non-radioactive kinase assays were set-up by combining hGWL-KinDom (305 µM in 20 mM HEPES pH 7.5, FL 500 mM NaCl, and 0.5 mM TCEP) diluted to desired concentration or immunoprecipitated hGWL on beads with ultra-pure ATP [Promega, 25 µM] and His-tagged substrate  α-endosulfine (ENSA, 2 µM) in kinase assay buffer (50 mM Tris-HCl pH 7.5, 0.5 mM EGTA, 150 mM NaCl, 0.1% v/v NP-40 and 15 mM MgCl2). The reaction was allowed to proceed for 30 min at 37 °C or another indicated time-point after which it was stopped with either SDS loading buffer (5X buffer, including 0.25 % w/v Bromophenol blue, 0.5 M DTT (dithiothreitol), 50% v/v Glycerol, 10% v/v SDS (sodium dodecyl sulphate), and 0.25M Tris-HCl pH 6.8) or Kinase-Glo Max reagent [Promega]. Recombinant His-tagged ENSA was purified using Ni-NTA agarose [QIAGEN] from BL21 E. coli following the manufacturer’s recommended protocol. […]
(§1) All kinase assays were repeated thrice per assay condition and each point on the concentration-dependent response curves represents the mean ± […]
After stopping the above non-radioactive kinase assay with 1 volume of Kinase-Glo Max reagent the mixture was allowed to incubate for a further 15 min. To detect consumption of ATP, samples were transferred to white, flat-bottom 96-well plates [Thermo Fisher Scientific, Loughborough, UK] and luminescence was detected using a POLARstar Omega micro-plate reader [BMG Labtech GmbH, Ortenberg, Germany]. As this assay measures ATP, activity or ATP turnover was measured as the -ΔRLU. […]
A general note: In Kinase-Glo more light means more ATP remaining.

For another data set, the target named is T2, hGWL^FL (Homo sapiens, UniProt Q96GX5).
T2 construct: N-terminally FLAG-tagged full-length human GWL; made in house; host or cells: HEK293T cells, transfected and nocodazole-arrested; protein captured on anti-Flag M2 beads
T2 sequence (Q96GX5 1-879): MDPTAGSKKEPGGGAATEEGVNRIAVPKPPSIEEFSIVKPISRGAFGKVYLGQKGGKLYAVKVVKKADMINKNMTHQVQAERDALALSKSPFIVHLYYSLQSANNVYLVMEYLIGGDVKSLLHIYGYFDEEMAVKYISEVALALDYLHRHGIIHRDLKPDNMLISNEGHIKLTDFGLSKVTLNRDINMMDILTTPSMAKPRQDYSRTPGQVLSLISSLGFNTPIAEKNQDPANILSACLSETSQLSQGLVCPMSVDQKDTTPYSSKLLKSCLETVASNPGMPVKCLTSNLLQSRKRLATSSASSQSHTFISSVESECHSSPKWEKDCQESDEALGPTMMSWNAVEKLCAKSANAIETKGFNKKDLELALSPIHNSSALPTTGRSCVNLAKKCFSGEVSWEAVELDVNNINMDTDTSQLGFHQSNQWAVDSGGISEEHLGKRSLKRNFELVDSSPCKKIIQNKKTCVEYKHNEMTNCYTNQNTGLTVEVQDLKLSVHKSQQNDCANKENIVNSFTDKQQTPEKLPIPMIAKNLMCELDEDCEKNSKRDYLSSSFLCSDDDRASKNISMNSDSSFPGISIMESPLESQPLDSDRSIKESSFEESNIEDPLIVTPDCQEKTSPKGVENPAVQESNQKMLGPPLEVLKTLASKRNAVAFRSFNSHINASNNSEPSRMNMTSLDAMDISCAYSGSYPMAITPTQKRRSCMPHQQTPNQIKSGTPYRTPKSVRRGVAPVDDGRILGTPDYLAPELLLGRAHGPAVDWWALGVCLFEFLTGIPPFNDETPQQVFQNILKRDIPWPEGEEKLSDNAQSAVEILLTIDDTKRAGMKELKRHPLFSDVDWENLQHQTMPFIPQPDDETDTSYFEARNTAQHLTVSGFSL
The experiment in a line: Immunoprecipitation kinase assay with Flag-tagged hGWL^FL (p-ENSA western). The note with it: for IC50: immunoprecipitated Flag-tagged hGWL^FL, read-out: IC50 GWL^FL; for inhibition of hGWL^FL (result in words): immunoprecipitation kinase assay. Here is the method: 500 mM NaCl, and 0.5 mM TCEP) diluted to desired concentration or immunoprecipitated hGWL on beads with ultra-pure ATP [Promega, 25 µM] and His-tagged substrate  α-endosulfine (ENSA, 2 µM) in kinase assay buffer (50 mM Tris-HCl pH 7.5, 0.5 mM EGTA, 150 mM NaCl, 0.1% v/v NP-40 and 15 mM MgCl2). The […]
(dithiothreitol), 50% v/v Glycerol, 10% v/v SDS (sodium dodecyl sulphate), and 0.25M Tris-HCl pH 6.8) or Kinase-Glo Max reagent [Promega]. Recombinant His-tagged ENSA was purified using Ni-NTA agarose [QIAGEN] from BL21 E. coli following the manufacturer’s recommended protocol. […]
as §1
Immunoprecipitation Kinase Assay
HEK293T cells were transfected with 10 µg of plasmid (Flag-tagged hGWLFL or GFP; pcDNA3-EGFP, Addgene, Cambridge MA, USA) using CaCl2. […]
incubated for a further 16–18 h. Cells were collected and washed in PBS-A followed by lysis on ice for 20 min in 1mL IP buffer (50 mM Tris-HCl pH 7.5, 150 mM NaCl, 10% v/v glycerol, 0.5% v/v NP-40, 1 mM EDTA supplemented with protease and phosphatase inhibitors (Complete and PhosStop; Roche Diagnostics)). Samples were then sonicated and clarified by centrifugation at 13,000 rpm for 30 min at 4°C. To capture Flag-tagged […]
hGWLFL, 100 µl of lysate was diluted 5-fold with IP buffer and combined with 3 µl anti-Flag M2 magnetic Dynabeads [Sigma-Aldrich] overnight at 4 °C. After sequential washes with IP buffer, 1:1 mix of IP and kinase assay buffers and a final wash in kinase assay buffer, the beads were then used in the kinase assay. The reaction was stopped by adding SDS loading buffer and analysed by western blot: p-ENSA and GWL levels were detected using the anti-phospho(Ser67)-ENSA and anti-MASTL(GWL, Prestige) antibodies. Activity was measured as the p-ENSA/GWL ratio and % kinase activity was normalised to the DMSO control. All kinases assays were repeated thrice per assay condition and each point on the concentration-dependent response curves represents the mean ± 1 S.D. […]

Another data set deals with T3, PKA (Homo sapiens, UniProt P17612).
T3 construct: purchased Promega
The experiment in a line: PKA kinase assay (Promega). Here is the method:
(§2) hGWLFL, 100 µl of lysate was diluted 5-fold with IP buffer and combined with 3 µl anti-Flag M2 magnetic Dynabeads [Sigma-Aldrich] overnight at 4 °C. After sequential washes with IP buffer, 1:1 mix of IP and kinase assay buffers and a final wash in kinase assay buffer, the beads were then used in the kinase assay. The reaction was stopped by adding SDS loading buffer and analysed by western blot: p-ENSA and GWL levels were detected using the anti-phospho(Ser67)-ENSA and anti-MASTL(GWL, Prestige) antibodies. Activity was measured as the p-ENSA/GWL ratio and % kinase activity was normalised to the DMSO control. All kinases assays were repeated thrice per assay condition and each point on the concentration-dependent response curves represents the mean ± 1 S.D.
(§3) PKA, ROCK1 and CDK2 kinase assays […]
(§4) Data were normalised against the AllStars negative control siRNA treated cells and values obtained from 3 – 5 biological replicates were reported as the mean ± 1 S.D.

The next data set deals with T4, ROCK1 (Homo sapiens, UniProt Q13464).
T4 construct: purchased Promega
The data set is described as follows: ROCK1 kinase assay (Promega). How it is done: as §2, §3, §4

The target in data set [2] is T1, hGWL-KinDom. The experiment in a line: Inhibitor screen of pooled library with hGWL-KinDom (Kinase-Glo Max). The conditions noted are these: for inhibition at 10 µM: 10 μM screening concentration, ATP concentration = 45 μM; for Rank in inhibitor screen: rank by potency in the screen. How it is done: Two small-molecule compound libraries, enriched with pharmacophores known to interact with the ATP-binding site of protein kinases, were screened as a pooled library in a Kinase-GloMax luminescence-kinase assay. page 4: […] Dynabeads [Sigma-Aldrich] overnight at 4 °C. After sequential washes with IP buffer, 1:1 mix of IP and kinase assay buffers and a final wash in kinase assay buffer, the beads were then used in the kinase assay. The reaction was stopped by adding SDS loading buffer and analysed by western blot: p-ENSA and GWL levels were detected using the anti-phospho([…] and […], Prestige) antibodies. Activity was measured as the […] ratio and % kinase activity was normalised to the DMSO control. All kinases assays were repeated thrice per assay condition and each point on the concentration-dependent response curves represents the mean ± 1 S.D. PKA, ROCK1 and CDK2 kinase assays PKA and ROCK1 assays (Promega) were carried out according to the manufacturer's protocols and CDK2 assays were carried out with Histone H1 as substrate (1 µg per 20 µl reaction) according to our Kinase-Glo Max assay. CDK2 was expressed and purified from E. coli as previously described (10). Inhibitor Screens with hGWL-KinDom Two small-molecule compound libraries, enriched with pharmacophores known to interact with the ATP- binding site of protein kinases, were kindly provided by GlaxoSmithKline and Roche. We used this pooled library (582 compounds, 10 µM screening concentrations) in a Kinase-Glo Max luminescence kinase assay (11, 12) as part of a two-point screen against hGWL-KinDom kinase activity, using ATP at fixed concentrations of […] With STU as positive control at a […] 4A,B). […] rate = 5.8%; Supplementary Figure 4A). Molecular Docking - AutoDock AT13148 and GKI-1/2 were docked into the ATP-binding site of the hGWL-KinDom crystal structure (where the disordered C-helix was homology-modelled) using AutoDock 4.2.6. PDB format files for the ligand and kinase domain were pre-processed using AutoDock Tools 1.5.6 as described in Mohamed, et al. (13). (Figure 4 and Supplementary Figure 6A,B). Immunofluorescence and Time-lapse video microscopy 2.5 X 105 HeLa cells were plated onto glass coverslips in a 6-well plate, or 4-well µ-slides [Ibidi GmbH] were seeded with 5 X 104 cells and then transfected with Qiagen AllStars negative control or Hs_MASTL_6 siRNAs (14) using Lipofectamine RNAiMax [ThermoFisher Scientific]. Media was exchanged with fresh media the next day. 48 hours after siRNA treatment, only cells to be used for immunofluorescence (IF) were treated with nocodazole (200 ng/mL) and DMSO or GKI-1 at the indicated concentration. For IF, cells were fixed, stained with primary mouse anti-GWL and rabbit anti-p-ENSA antibodies, secondary Alexa Fluor 647-conjugated anti- rabbit and Alexa Fluor 488-conjugated anti-mouse antibodies, DAPI and mounted onto glass microscope slides using Diamond Antifade Mountant [Molecular Probes, ThermoFisher Scientific]. Quantitation of IF images was performed using the […]-Content Screening Station [Olympus Life Science] which acquired 220, 40x images per cover slip. Data were normalised against the AllStars negative control siRNA treated cells and values obtained from three biological replicates were reported as the mean ± 1 S.D. To assist with selecting mitotic cells, ScanR imaging software was utilised to gate for mitotic cells using the circularity factor and total DAPI parameters. To produce time-lapse videos, after 48 hours and cell treatment with DMSO or compound (cells were treated with GKI-1 for 4-h before image acquisition) cells plated in 4-well µ-slides were imaged every 5 minutes for 8.5 hours on an Olympus IX73 microscope, using a 40 x 0.95NA air objective, and recorded on an Orca-Flash 4.0 CMOS camera [Hamatsu]. The computer program Fiji (http://www.fiji.sc/Fiji) was used to generate videos from image sequence TIF files. Data were normalised against the AllStars negative control siRNA treated cells and […]

Some results are limits rather than exact numbers.

T1 sequence (Q96GX5 with tags, fused parts or gaps limits assumed): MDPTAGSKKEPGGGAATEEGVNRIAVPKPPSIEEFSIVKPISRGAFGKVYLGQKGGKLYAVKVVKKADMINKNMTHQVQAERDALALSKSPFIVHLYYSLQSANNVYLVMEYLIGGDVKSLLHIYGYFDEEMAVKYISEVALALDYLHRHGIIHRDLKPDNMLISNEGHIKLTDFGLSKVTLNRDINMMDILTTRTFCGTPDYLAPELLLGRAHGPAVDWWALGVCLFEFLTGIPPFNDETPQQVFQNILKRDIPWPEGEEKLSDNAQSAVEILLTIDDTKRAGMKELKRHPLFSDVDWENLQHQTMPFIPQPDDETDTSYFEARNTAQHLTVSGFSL
T4 sequence (Q13464 whole entry): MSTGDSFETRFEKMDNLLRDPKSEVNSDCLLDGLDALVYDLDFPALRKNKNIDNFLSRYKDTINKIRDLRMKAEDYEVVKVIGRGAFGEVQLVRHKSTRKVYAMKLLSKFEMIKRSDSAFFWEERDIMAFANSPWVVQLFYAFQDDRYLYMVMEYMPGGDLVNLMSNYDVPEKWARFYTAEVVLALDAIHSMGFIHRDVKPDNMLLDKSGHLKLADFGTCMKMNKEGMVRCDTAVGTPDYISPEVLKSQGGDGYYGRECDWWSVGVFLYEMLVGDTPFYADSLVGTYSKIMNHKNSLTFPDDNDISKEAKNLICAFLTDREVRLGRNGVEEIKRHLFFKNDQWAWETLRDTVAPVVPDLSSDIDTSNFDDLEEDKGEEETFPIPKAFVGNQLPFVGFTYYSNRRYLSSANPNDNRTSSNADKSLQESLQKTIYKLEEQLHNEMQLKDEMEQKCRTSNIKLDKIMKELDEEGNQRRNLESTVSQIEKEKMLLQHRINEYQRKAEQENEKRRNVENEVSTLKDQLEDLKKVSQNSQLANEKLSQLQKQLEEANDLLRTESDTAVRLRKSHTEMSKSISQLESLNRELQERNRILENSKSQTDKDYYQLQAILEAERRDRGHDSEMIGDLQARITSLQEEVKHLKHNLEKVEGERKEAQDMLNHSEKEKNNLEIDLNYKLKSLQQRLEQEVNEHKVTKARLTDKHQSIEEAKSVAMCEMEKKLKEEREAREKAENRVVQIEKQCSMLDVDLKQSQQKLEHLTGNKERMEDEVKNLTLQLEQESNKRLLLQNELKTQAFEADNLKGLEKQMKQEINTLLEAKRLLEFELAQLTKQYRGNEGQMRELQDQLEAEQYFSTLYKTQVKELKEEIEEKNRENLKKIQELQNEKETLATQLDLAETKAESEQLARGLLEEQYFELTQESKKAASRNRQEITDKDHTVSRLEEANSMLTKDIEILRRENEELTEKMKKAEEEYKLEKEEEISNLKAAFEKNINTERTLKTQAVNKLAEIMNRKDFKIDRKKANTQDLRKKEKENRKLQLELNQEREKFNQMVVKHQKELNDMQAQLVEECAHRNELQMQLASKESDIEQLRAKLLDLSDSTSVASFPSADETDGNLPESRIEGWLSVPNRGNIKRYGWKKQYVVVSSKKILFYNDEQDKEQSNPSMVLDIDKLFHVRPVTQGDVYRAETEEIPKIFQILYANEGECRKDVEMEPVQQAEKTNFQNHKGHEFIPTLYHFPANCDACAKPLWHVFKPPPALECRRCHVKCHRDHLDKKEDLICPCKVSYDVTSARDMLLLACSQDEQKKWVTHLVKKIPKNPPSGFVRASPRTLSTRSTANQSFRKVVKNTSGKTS

A word on the IC50: it is the point on the concentration scale where inhibition reaches its midpoint. For `NC[C@@](O)(c1ccc(Cl)cc1)c1ccc(-c2cn[nH]c2)cc1` [AT13148, reference compound], the IC50 at hGWL-KinDom [1] (Kinase-Glo Max assay, read-out: IC50 GWL-KinDom) was 125 ± 1.7 nM; on hGWL^FL, 5.9 µM; against PKA (refers to Table 2), around 11 nM; against PKA (± S.D.), 6.13 ± 2 nM; against ROCK1 (refers to Table 2) it was around 6 nM; on ROCK1 (± S.D.), 11.4 ± 4 nM. The “inhibitory ratio (IC50 GWL^FL/IC50 GWL-KinDom)” value on hGWL^FL (for GKI-1: EC50 hGWL^FL vs IC50 hGWL-KinDom) is 45. Also, on hGWL^FL (hGWL^FL inhibition), the “AT13148 IC50/STU IC50” value was ~ 2.
For orientation: Km means the substrate concentration at which the rate is half of its maximum. A word on the kcat: it is the maximal rate divided by the concentration of active sites. With `Nc1ncnc2c1ncn2[C@@H]1O[C@H](COP(=O)(O)OP(=O)(O)OP(=O)(O)O)[C@@H](O)[C@H]1O` [ATP], on hGWL-KinDom [1], the Km came out at 17.2 ± 2.4 µM and the kcat was determined as 10.4 ± 0.48 s⁻¹.
For the molecule `Clc1ccc(Nc2ccc(-c3cn[nH]c3)cc2)cc1` [GKI-2, N-(4-chorophenyl)-4-(1H-pyrazol-4-yl)aniline], at hGWL^FL, the “inhibition of hGWL^FL (result in words)” value was “did not demonstrably inhibit”.
One may read the inhibition as how much of the control response was suppressed. `COc1cc[nH]c1/C=C1\C(=O)Nc2ccc(F)c(C#CC3(O)CCNCC3)c21` [GRI-1]: on hGWL^FL, the IC50 was above 100 µM and the “inhibition of hGWL^FL (result in words)” value is listed as “did not demonstrably inhibit”. In addition, at hGWL-KinDom [2], the inhibition at 10 µM amounted to 67.6% and the “Rank in inhibitor screen” value worked out at 1.
As for `CNC(C#Cc1c(F)ccc2c1C(=Cc1[nH]ccc1OC)C(=O)N2)CO` (stereo not drawn) [GRI-2], at hGWL^FL, the IC50 was above 100 µM and the “inhibition of hGWL^FL (result in words)” value is listed as “did not demonstrably inhibit”. At hGWL-KinDom [2], the inhibition at 10 µM was 37% and the “Rank in inhibitor screen” value turned out to be 5.

B1: ENSA: His-tagged recombinant α-endosulfine, GWL substrate (protein, UniProt O43768 2-121, looked up)
Alpha-endosulfine: SQKQEEENPAEETGEEKQDTQEKEGILPERAEEAKLKAKYPSLGQKPGGSDFLMKRLQKGQKYFDSGDYNMAKAKMKNKQLPSAGPDKNLVTGDHIPTPQDLPQRKSSLVTSKLAGGQVE
modifications: His tag
notes: His-tagged recombinant α-endosulfine, GWL substrate
For B1, in the data set with hGWL-KinDom [1], the Km amounted to 1.6 ± 0.3 µM and the kcat was 0.2 ± 0.01 s⁻¹.

The values above are taken from publication PMC5342071, “A first generation inhibitor of human Greatwall kinase, enabled by structural and functional characterisation of a minimal kinase domain construct” (Oncotarget, 2016).
